The target of test [1] is T1, MAGL splicing variants in mouse brain proteome (Mus musculus, UniProt O35678).
T1 sequence (O35678 1-303): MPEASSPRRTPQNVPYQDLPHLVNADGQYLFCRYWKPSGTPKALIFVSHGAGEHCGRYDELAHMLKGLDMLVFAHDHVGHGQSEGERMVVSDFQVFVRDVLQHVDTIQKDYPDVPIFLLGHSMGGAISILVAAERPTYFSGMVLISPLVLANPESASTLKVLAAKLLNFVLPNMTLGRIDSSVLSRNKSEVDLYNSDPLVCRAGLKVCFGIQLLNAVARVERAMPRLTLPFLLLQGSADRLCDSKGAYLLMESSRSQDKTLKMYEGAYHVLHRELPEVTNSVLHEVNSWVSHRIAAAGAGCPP
Nature of the test: In-gel SDS-PAGE fluorescence labeling of mouse brain proteome with irreversible probes. It counts as biochemical. The method, then:
(§1) Activity‐based protein profiling (ABPP)[49] was used to determine the selectivity of the reversible probes (9, 10) versus a broad range of other serine hydrolases, including the relevant ECS off‐targets DAGL, FAAH, ABHD6, and ABHD12.[45, 49, 50, 51] The ABPP assay was studied in the mouse brain proteome (MBP) at 1 μM concentration as mouse brain homogenate is the most relevant model system for studying ECS enzymes.[45, 49, 50, 51] […] The irreversible probes 11 and 12 could be used to visualize MAGL by in‐gel SDS‐PAGE fluorescence of MBP samples and, thereby, directly showing the specificity of 11 and 12 towards the two MAGL splicing variants present in MBP over a broad range of concentrations. Starting at 1 nM probe concentration, MAGL was detected and only at elevated concentrations greater than 1 μM, minor off‐target protein labeling at approx. 80 kDa started to appear (Figure 3 B). In addition to testing in mouse brain lysates, we also determined the binding of MAGL probes 9–12 towards a panel of 50 off‐targets via a competitive radioligand binding screen to detect interference with potential safety‐related off‐targets (Figure 3 C).
(§2) Mouse brain sample preparation. […] Protein concentration was determined with Bradford Assay, and samples were diluted to a final concentration of 2.0 mg/mL. […]

The test system of test [2] is serine hydrolases of the mouse brain proteome (MAGL, DAGL, FAAH, ABHD6, ABHD12). Nature of the test: Competitive multiplex ABPP in mouse brain proteome. It counts as biochemical. The conditions noted are these: 1 μM probe. The method, then:
as §1, §2

A value given as a limit tells only on which side of the number the result lay.

`CN(C)c1ccc2c(c1)[Si](C)(C)c1cc(N(C)C)ccc1C21OC(=O)c2ccc(C(=O)NCCCCCOc3ccccc3CC3CC4(C3)CN(C(=O)OC(C(F)(F)F)C(F)(F)F)C4)cc21` (stereo not drawn) [Compound 12]: in test [1], the “Probe concentration at which minor off-target protein labeling (approx. 80 kDa) appears” value is reported as “greater than 1 μM” and the “Probe concentration from which MAGL was detected” value is on record as at least 1 nM. Regarding `CN(C)c1ccc2c(c1)[Si](C)(C)c1cc(N(C)C)ccc1C21OC(=O)c2ccc(C(=O)NCCCCCOc3ccccc3CC3CC4(C3)CN(C(=O)N3CC5(COC(=O)N5)C3)C4)cc21` (stereo not drawn) [Compound 10], the “Blocking of serine hydrolase fluorescence signal (selectivity)” value in test [2] was “Complete blocking of the fluorescence signal was exclusively observed for MAGL”.
